# Reference: patent US20250161299A1, “ORAL PCLX-001 IN THE TREATMENT OF HUMAN CANCER” (PACYLEX PHARMACEUTICALS INC., priority 2022, published 2025)
# Read-outs that look alike come from different tables or passages of the source.
# Experiment: Phase I trial of oral PCLX-001: plasma pharmacokinetics, noncompartmental analysis (Phoenix WinNonlin 8.3)
# Type: in vivo, human
# Settings: for AUC(0-t): read-out: AUClast; for Tmax: read-out: Tmax
# Text: The clinical trial is entitled “Phase I Trial of PCLX-001 in B-cell Non-Hodgkin Lymphoma and Advanced Solid Malignancies” and registered at clinicaltrials.gov as NCT04836195. It is a phase I dose-escalation study of oral PCLX-001, conducted in a multicenter, non-randomized, open-label, non-controlled design. The study is comprised of two parts: Part A (single-agent dose escalation) and Part B (single-agent expansion cohorts).
# Patients are to receive daily oral PCLX-001 on 28-day cycles, beginning with a starting dose of 20 mg.
# […] After dosing, the blood samples (volumes 3 mL) were serially collected into heparinized tubes from a right forearm butterfly cannula. All blood fluid specimens were frozen and later assayed using a validated UHPLC-MS detection method.
# Noncompartmental pharmacokinetic analysis was performed using Phoenix WinNonlin 8.3 using trapezoidal rule and linear up log down methodology. WinNonlin was allowed to pick optimal terminal phases.
# Nonparametric superposition was performed using Phoenix WinNonlin Nonparametric Superposition to predict steady state data based upon Day 1 data for each patient. It utilized the 8- and 24-hour time points for estimation of terminal phase for the purposes of this exercise. We simulated 20 mg daily oral dosing and simulations were conducted out to steady state. Results are show in FIGS. 5, 6, and 7.
# In the non-compartmental analysis, Phoenix WinNonlin 8.3 trapezoidal rule was used, with linear up log down method. This allowed WinNonlin to pick optimal terminal phase (WinNonlin will accept Rsq adjusted to >0.7). Additional analysis to assess adequate fie included visual inspection of data, and AUCextrap should be <15%.
# Phoenix WinNonlin 8.3 trapezoidal rule. Used linear up log down method. Allowed WinNonlin to pick optimal terminal phase (WinNonlin will accept Rsq adjusted >0.7).
# Other analysis to assess adequate fit. Visual inspection of data. AUCextrap should be <15%.
# [1] = Table 1A, Patient 115-002-001 (Patient 1), Day 1, 20 mg oral daily
# [2] = human, plasma, oral, 20 mg, Table 4, Mean, not on Pantoprazole, 20 mg, N 3, Day 1
# [3] = human, plasma, oral, 20 mg, Table 4, Mean, not on Pantoprazole, 20 mg, N 3, Day 15
# [4] = human, plasma, oral, 40 mg, Table 4, not on Pantoprazole, 40 mg, N 1, Day 1
# [5] = human, plasma, oral, 40 mg, Table 4, not on Pantoprazole, 40 mg, N 1, Day 15
# [6] = human, plasma, oral, 40 mg, Table 5, on Pantoprazole, 40 mg, N 1, Day 1
# [7] = human, plasma, oral, 40 mg, Table 5, on Pantoprazole, 40 mg, N 1, Day 15
# [8] = human, plasma, oral, 70 mg, Table 4, not on Pantoprazole, 70 mg, N 1, Day 1
smiles,measurement,setting,value
"Cc1c(NS(=O)(=O)c2c(Cl)cc(-c3ccnc(N4CCNCC4)c3)cc2Cl)c(CC(C)C)nn1C [PCLX-001, 2,6-dichloro-N-(3-isobutyl-1,5-dimethyl-1H-pyrazol-4-yl)-4-(2-(piperazin-1-yl)pyridin-4-yl)benzene sulfonamide]",systemic accumulation of drug,"Patient 1, by day 15, 20 mg oral daily",without systemic accumulation of drug
same,drug accumulation,"Patient 2, 20 mg oral daily",No significant drug accumulation
same,AUCextrep,[1],15.9%
same,half-life,[1],8.5 h
same,AUCextrep,"Table 1A, Patient 115-002-001 (Patient 1), Day 15, 20 mg oral daily",21.9%
same,AUCextrep,"Table 1A, Patient 115-002-002 (Patient 2), Day 15, 20 mg oral daily",20.4%
same,AUCextrep,"Table 1A, Patient 115-002-004 (Patient 3), Day 1, 20 mg oral daily",5.41%
same,AUCextrep,"Table 1A, Patient 115-002-004 (Patient 3), Day 15, 20 mg oral daily",11.3%
same,AUCextrap,"Table 6, Patient 115-002-001, Day 1, 20 mg QD oral, Pantoprazole No",15.3%
same,AUCextrap,"Table 6, Patient 115-002-001, Day 15, 20 mg QD oral, Pantoprazole No",23.7%
same,AUCextrap,"Table 6, Patient 115-002-002, Day 15, 20 mg QD oral, Pantoprazole No",17.5%
same,AUCextrap,"Table 6, Patient 115-002-004, Day 1, 20 mg QD oral, Pantoprazole No",5.1%
same,AUCextrap,"Table 6, Patient 115-002-004, Day 15, 20 mg QD oral, Pantoprazole No",10.0%
same,AUCextrap,"Table 7, Patient 115-002-005, Day 1, 40 mg QD oral, Pantoprazole Yes",9.5%
same,AUCextrap,"Table 7, Patient 115-002-005, Day 15, 40 mg QD oral, Pantoprazole Yes",5.3%
same,AUCextrap,"Table 7, Patient 115-009-001, Day 1, 40 mg QD oral, Pantoprazole No",20.1%
same,AUCextrap,"Table 7, Patient 115-009-001, Day 15, 40 mg QD oral, Pantoprazole No",24.9%
same,AUCextrap,"Table 8, Patient 115-024-001, Day 1, 70 mg QD oral, Pantoprazole No",16.8%
same,AUCextrap,"Table 9, Patient 115-002-009, Day 1, 100 mg QD oral, Pantoprazole No",4.4%
same,AUCextrap,"Table 9, Patient 115-002-010, Day 1, 100 mg QD oral, Pantoprazole No",10.9%
same,AUCextrap,"Table 9, Patient 115-002-011, Day 1, 100 mg QD oral, Pantoprazole No",18.4%
same,AUCextrap,"Table 9, Patient 115-002-012, Day 15, 100 mg QD oral, Pantoprazole No",12.2%
same,AUCextrap,"Table 10, Patient 115-002-006, Day 1, Dose 140 mg QD oral, Concomitant Pantoprazole No",5.48%
same,AUCextrap,"Table 10, Patient 115-002-006, Day 15, Dose 140 mg QD oral, Concomitant Pantoprazole No",22.7%
same,AUCextrap,"Table 10, Patient 115-024-005, Day 1, Dose 140 mg QD oral, Concomitant Pantoprazole Yes",12.1%
same,AUCextrap,"Table 10, Patient 115-024-005, Day 15, Dose 140 mg QD oral, Concomitant Pantoprazole Yes",37.9%
same,AUCextrap,"Table 10, Patient 115-024-013, Day 1, Dose 140 mg QD oral, Concomitant Pantoprazole Yes",12.5%
same,AUCextrap,"Table 10, Patient 115-024-013, Day 15, Dose 140 mg QD oral, Concomitant Pantoprazole Yes",39.9%
same,dose proportionality of systemic exposure,dose range of 20 to 140 mg,dose proportional
same,Cmax,"human, plasma, oral, 20 mg, Table 3, human (patient 1), 20 mg/75 kg = 0.27 mg/kg",479 ng/mL
same,half-life,"human, plasma, oral, 20 mg, Table 3, human (patient 1), 20 mg/75 kg = 0.27 mg/kg, read-out: Terminal elimination half-life (converted)",16 h
same,Cmax,"human, plasma, oral, 20 mg, Table 4, Mean (CV), not on Pantoprazole, 20 mg, N 3, Day 1",276 ng/mL
same,half-life,"human, plasma, oral, 20 mg, Table 4, Mean (CV), not on Pantoprazole, 20 mg, N 3, Day 1, read-out: t½ (converted)",6.93 h
same,Cmax,"human, plasma, oral, 20 mg, Table 4, Mean (CV), not on Pantoprazole, 20 mg, N 3, Day 15",359 ng/mL
same,half-life,"human, plasma, oral, 20 mg, Table 4, Mean (CV), not on Pantoprazole, 20 mg, N 3, Day 15, read-out: t½ (converted)",8.93 h
same,AUC(0-inf),[2],1960 ng·h/mL
same,AUC(0-t),[2],1600 ng·h/mL
same,AUC(0-inf),[3],2720 ng·h/mL
same,AUC(0-t),[3],2220 ng·h/mL
same,Tmax,"human, plasma, oral, 20 mg, Table 4, median (min, max), not on Pantoprazole, 20 mg, N 3, Day 1",2 h
same,Tmax,"human, plasma, oral, 20 mg, Table 4, median (min, max), not on Pantoprazole, 20 mg, N 3, Day 15",1 h
same,AUC(0-inf),[4],12600 ng·h/mL
same,Cmax,[4],1670 ng/mL
same,AUC(0-t),[4],10100 ng·h/mL
same,Tmax,[4],1 h
same,half-life,"human, plasma, oral, 40 mg, Table 4, not on Pantoprazole, 40 mg, N 1, Day 1, read-out: t½ (converted)",10.8 h
same,AUC(0-inf),[5],18300 ng·h/mL
same,Cmax,[5],1480 ng/mL
same,AUC(0-t),[5],13700 ng·h/mL
same,Tmax,[5],2 h
same,half-life,"human, plasma, oral, 40 mg, Table 4, not on Pantoprazole, 40 mg, N 1, Day 15, read-out: t½ (converted)",11.9 h
same,AUC(0-inf),[6],4900 ng·h/mL
same,Cmax,[6],868 ng/mL
same,AUC(0-t),[6],4430 ng·h/mL
same,Tmax,[6],0.5 h
same,half-life,"human, plasma, oral, 40 mg, Table 5, on Pantoprazole, 40 mg, N 1, Day 1, read-out: t½ (converted)",7.5 h
same,AUC(0-inf),[7],7060 ng·h/mL
same,Cmax,[7],802 ng/mL
same,AUC(0-t),[7],6680 ng·h/mL
same,Tmax,[7],2 h
same,half-life,"human, plasma, oral, 40 mg, Table 5, on Pantoprazole, 40 mg, N 1, Day 15, read-out: t½ (converted)",5.54 h
same,AUC(0-inf),[8],11300 ng·h/mL
same,Cmax,[8],1430 ng/mL
same,AUC(0-t),[8],9400 ng·h/mL
same,Tmax,[8],1 h
same,half-life,"human, plasma, oral, 70 mg, Table 4, not on Pantoprazole, 70 mg, N 1, Day 1, read-out: t½ (converted)",9.44 h
